From PubChem BioAssay (NCI) come the findings set out here.

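Protocol summary: plate cells (96-well), add compound at 5 concentrations, incubate 48 h, interpolate endpoints linearly. TGI marks complete inhibition of growth.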

Test systems include RPMI-8226 leukemia; OVCAR-5 ovarian; HT29 colon; NCI-H226 lung; K-562 leukemia; RXF 393 renal; U251 CNS; SF-268 CNS; MOLT-4 leukemia; NCI-H522 lung; COLO 205 colon; KM12 colon; HOP-62 NSCLC; OVCAR-4 ovarian; SR leukemia; MDA-MB-435; PC-3 prostate; NCI/ADR-RES ovarian; MDA-MB-231 breast; HS 578T breast.
Test in all cases: NCI-60 cell line screen, 48 h

`NC(N)=NS(=O)(=O)c1ccc(Nc2c3ccccc3nc3c(C(=O)Nc4ccc(S(N)(=O)=O)cc4)ccc(Cl)c23)cc1`: the TGI in the assay on RPMI-8226 leukemia, in the assay on OVCAR-5 ovarian, in the assay with HT29 colon, in the assay on NCI-H226 lung, in the assay on K-562 leukemia and in the assay with RXF 393 renal was over 100 µM in each case. Moreover, the TGI in the assay on U251 CNS, with SF-268 CNS, with MOLT-4 leukemia, with NCI-H522 lung, in the assay on COLO 205 colon and in the assay on KM12 colon was over 100 µM each time. The TGI in the assay on HOP-62 NSCLC, in the assay with OVCAR-4 ovarian and in the assay with SR leukemia was over 100 µM throughout.
On to `CNc1nnc(CNc2ccc(-c3nnc(NC)n3N)cc2)n1N`, for which the TGI in the assay on OVCAR-5 ovarian, with HT29 colon, in the assay with MDA-MB-435, with NCI-H226 lung, with K-562 leukemia and in the assay on RXF 393 renal was over 100 µM throughout. Also, the TGI in the assay on PC-3 prostate, in the assay on U251 CNS, in the assay on SF-268 CNS, in the assay with MOLT-4 leukemia, with COLO 205 colon and in the assay with KM12 colon was over 100 µM in each case. For the same molecule, the TGI in the assay on HOP-62 NSCLC, in the assay on OVCAR-4 ovarian, in the assay on NCI/ADR-RES ovarian and in the assay on MDA-MB-231 breast was over 100 µM each time.
Turning to `Cc1ccc(-c2nc(-c3cnccn3)n(C3OC(CO)C(O)C(O)C3O)n2)cc1` (stereo not drawn), the TGI in the assay with RPMI-8226 leukemia, in the assay on OVCAR-5 ovarian, in the assay on HT29 colon, in the assay with MDA-MB-435, in the assay on K-562 leukemia and in the assay with RXF 393 renal was over 100 µM throughout. Besides, the TGI in the assay on PC-3 prostate, in the assay with U251 CNS, in the assay on SF-268 CNS, in the assay on MOLT-4 leukemia, in the assay with NCI-H522 lung and with COLO 205 colon was over 100 µM throughout. The TGI in the assay with KM12 colon, with HOP-62 NSCLC, in the assay on OVCAR-4 ovarian, in the assay on SR leukemia, in the assay on NCI/ADR-RES ovarian and with MDA-MB-231 breast was over 100 µM throughout.
In the case of `O=C(COC(=O)c1cccc2c(=O)c3ccccc3[nH]c12)Nc1ccccc1`, the TGI was 83.5 µM with RPMI-8226 leukemia; over 100 µM with HT29 colon; over 100 µM in the assay with NCI-H226 lung; over 100 µM in the assay on K-562 leukemia; 97.9 µM with RXF 393 renal; over 100 µM with U251 CNS. Besides, the TGI with SF-268 CNS is over 100 µM; in the assay with MOLT-4 leukemia it was 43.8 µM; in the assay on NCI-H522 lung, 73.4 µM; with COLO 205 colon it was 51.6 µM; in the assay on KM12 colon, 54.1 µM; with HOP-62 NSCLC, over 100 µM. Also, the TGI was over 100 µM in the assay on OVCAR-4 ovarian and 54.3 µM with SR leukemia.
For the molecule `COC1O[C@H]2[C@H]3[C@@H]1[C@@H](OS(=O)(=O)c1ccc(C)cc1)C(=O)N3C[C@H]2O` (stereo partly drawn), the TGI with RPMI-8226 leukemia, in the assay on OVCAR-5 ovarian, with HT29 colon, in the assay on MDA-MB-435, with NCI-H226 lung and with K-562 leukemia was over 100 µM each time. Also, the TGI with RXF 393 renal is 81.7 µM; in the assay with PC-3 prostate it was over 100 µM; in the assay with U251 CNS it was over 100 µM; in the assay on SF-268 CNS, over 100 µM; with MOLT-4 leukemia, over 100 µM; in the assay on COLO 205 colon, over 100 µM. The TGI in the assay on KM12 colon, with HOP-62 NSCLC, in the assay with OVCAR-4 ovarian, with SR leukemia, with NCI/ADR-RES ovarian and with MDA-MB-231 breast was over 100 µM in each case.
As to `COc1cc(S(=O)(=O)Nc2nc(-c3ccc(N4C(=O)/C(=C/c5ccccc5[N+](=O)[O-])N=C4c4ccccc4)cc3)cs2)ccc1Cl`, the TGI in the assay on OVCAR-5 ovarian, in the assay on HT29 colon, with MDA-MB-435, in the assay on NCI-H226 lung, in the assay with K-562 leukemia and in the assay on RXF 393 renal was over 100 µM each time. Also, the TGI with PC-3 prostate, with U251 CNS, in the assay with SF-268 CNS, in the assay with MOLT-4 leukemia, in the assay on NCI-H522 lung and with COLO 205 colon was over 100 µM each time. The TGI in the assay on KM12 colon is over 100 µM; in the assay on HOP-62 NSCLC, over 100 µM; in the assay with OVCAR-4 ovarian, over 100 µM; in the assay on SR leukemia, over 100 µM; with NCI/ADR-RES ovarian, over 100 µM; in the assay on MDA-MB-231 breast, 42.2 µM.
Regarding `O=[N+]([O-])c1c(C=Nc2ccccc2)oc(-c2ccc3c(c2)OCO3)c1-c1ccc2c(c1)OCO2`, the TGI in the assay on RPMI-8226 leukemia, with OVCAR-5 ovarian, in the assay on HT29 colon, in the assay with NCI-H226 lung, in the assay on K-562 leukemia and in the assay on RXF 393 renal was over 100 µM in each case. For the same molecule, the TGI with U251 CNS, in the assay on SF-268 CNS, in the assay with MOLT-4 leukemia, in the assay with NCI-H522 lung, with COLO 205 colon and with KM12 colon was over 100 µM in each case. Moreover, the TGI with HOP-62 NSCLC, in the assay on OVCAR-4 ovarian and in the assay on SR leukemia was over 100 µM each time.
As for `N#CCC(=O)N/N=C(\C(=O)Nc1ccc(Cl)c(Cl)c1)C1CN(c2ccccc2)N=C1N` (stereo not drawn), the TGI in the assay with RPMI-8226 leukemia, in the assay on OVCAR-5 ovarian, in the assay on HT29 colon, in the assay on NCI-H226 lung, with K-562 leukemia and in the assay on RXF 393 renal was over 100 µM in each case. Moreover, the TGI with U251 CNS, with SF-268 CNS, in the assay on MOLT-4 leukemia, in the assay with NCI-H522 lung, with COLO 205 colon and in the assay with KM12 colon was over 100 µM in each case. The TGI in the assay on HOP-62 NSCLC, with OVCAR-4 ovarian and with SR leukemia was over 100 µM in each case.
Turning to `NCCC(=O)N[C@@H](Cc1cc(O)c(O)c(SCC(NC(=O)CC[C@H](N)C(=O)O)C(=O)NCC(=O)O)c1)C(=O)O` (stereo partly drawn), the TGI with RPMI-8226 leukemia, with OVCAR-5 ovarian, with HT29 colon, with MDA-MB-435, with NCI-H226 lung and in the assay on K-562 leukemia was over 50 µM in each case. In addition, the TGI in the assay on RXF 393 renal, in the assay with PC-3 prostate, in the assay with U251 CNS, with SF-268 CNS, in the assay on MOLT-4 leukemia and in the assay with NCI-H522 lung was over 50 µM throughout. For the same molecule, the TGI in the assay with COLO 205 colon, in the assay with KM12 colon, in the assay on HOP-62 NSCLC, in the assay with OVCAR-4 ovarian, with NCI/ADR-RES ovarian and in the assay on MDA-MB-231 breast was over 50 µM in each case.
With `COc1cccc(Cc2cc(=O)c3ccc(C)nc3[nH]2)c1`, the TGI with RPMI-8226 leukemia, in the assay on HS 578T breast, in the assay on OVCAR-5 ovarian, in the assay with HT29 colon, in the assay on MDA-MB-435 and with NCI-H226 lung was over 100 µM each time. Further, the TGI in the assay with K-562 leukemia was over 100 µM; in the assay on RXF 393 renal it was over 100 µM; in the assay on U251 CNS, over 100 µM; in the assay with SF-268 CNS it was over 100 µM; in the assay with MOLT-4 leukemia, over 100 µM; in the assay with NCI-H522 lung it was 65 µM. The TGI in the assay with COLO 205 colon, in the assay on KM12 colon, in the assay on HOP-62 NSCLC, in the assay with SR leukemia, with NCI/ADR-RES ovarian and in the assay with MDA-MB-231 breast was over 100 µM throughout.
Turning to `CC(C)(C)OC(=O)C1CC[C@@H](CC(=O)Oc2ccc([N+](=O)[O-])cc2)N1` (stereo partly drawn), the TGI with RPMI-8226 leukemia, with OVCAR-5 ovarian, with MDA-MB-435, in the assay with NCI-H226 lung, in the assay on RXF 393 renal and with PC-3 prostate was over 100 µM throughout. For the same molecule, the TGI in the assay on U251 CNS, with MOLT-4 leukemia, in the assay with NCI-H522 lung, in the assay on COLO 205 colon, in the assay with KM12 colon and in the assay on OVCAR-4 ovarian was over 100 µM throughout. Further, the TGI in the assay with SR leukemia, in the assay with NCI/ADR-RES ovarian and in the assay with MDA-MB-231 breast was over 100 µM each time.
Consider `C[Si](C)(OCCS(=O)(=O)O)OC(=C1S(=O)(=O)OCCOS1(=O)=O)c1cccc2ccccc12`, for which the TGI in the assay with RPMI-8226 leukemia, in the assay on OVCAR-5 ovarian, in the assay with HT29 colon, in the assay on MDA-MB-435, in the assay with NCI-H226 lung and with K-562 leukemia was over 100 µM in each case. Besides, the TGI in the assay on RXF 393 renal, in the assay on PC-3 prostate, in the assay on U251 CNS, in the assay with SF-268 CNS, in the assay with MOLT-4 leukemia and in the assay on COLO 205 colon was over 100 µM each time. In addition, the TGI in the assay on KM12 colon, with HOP-62 NSCLC, in the assay on OVCAR-4 ovarian, with SR leukemia, in the assay with NCI/ADR-RES ovarian and with MDA-MB-231 breast was over 100 µM in each case.
With `CC(=O)c1cccc(NC(=O)C(=O)Nn2c(N)nnc2N)c1`, the TGI in the assay with RPMI-8226 leukemia, with OVCAR-5 ovarian, with HT29 colon, in the assay with NCI-H226 lung, with K-562 leukemia and in the assay with RXF 393 renal was over 100 µM each time. Further, the TGI with U251 CNS, in the assay with SF-268 CNS, with MOLT-4 leukemia, in the assay with NCI-H522 lung, in the assay on COLO 205 colon and with KM12 colon was over 100 µM in each case. In addition, the TGI with HOP-62 NSCLC, with OVCAR-4 ovarian and in the assay with SR leukemia was over 100 µM throughout.
